From patent publication EP1984353B1, “AURORA KINASE MODULATORS AND METHOD OF USE” (Amgen, Inc, priority 2006, dated 2007) come the findings set out here.

One assay has as its target T1, AuroraB (Homo sapiens, UniProt Q96GD4).
T1 construct: 20 µL of AuroraB FL His; His
In words: AuroraB Homogeneous Time Resolved Fluorescent (HTRF) kinase assay. The class given is biochemical. Conditions: average, read-out: AurB_ _IC50_IP (Avg). In outline:
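Full-length His-tagged AuroraB (400 pM) phosphorylates 0.1 µM biotinylated Histone H3 with 23 µM ATP (Km(app)) in HEPES pH 7.5 with Mg/Mn, about 90 min. EDTA-quenched; Eu-anti-phosphoHistoneH3 and SA-APC HTRF, 655/615 nm ratio as phosphorylation.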

In the next assay the target is T2, AuroraA-TPX2 (Homo sapiens, UniProt O14965).
T2 construct: 20 µL of AuroraA-TPX2 KD GST; GST
T2 sequence (O14965 133-383 limits assumed): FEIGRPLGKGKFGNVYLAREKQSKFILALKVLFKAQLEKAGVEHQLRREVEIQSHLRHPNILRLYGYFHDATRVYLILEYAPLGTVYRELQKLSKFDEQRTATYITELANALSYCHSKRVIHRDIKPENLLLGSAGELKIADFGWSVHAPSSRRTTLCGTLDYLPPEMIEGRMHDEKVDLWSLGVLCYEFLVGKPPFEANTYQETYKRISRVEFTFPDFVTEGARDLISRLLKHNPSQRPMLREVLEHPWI
T2 sequence (Q9ULW0 1-43 partner limits assumed): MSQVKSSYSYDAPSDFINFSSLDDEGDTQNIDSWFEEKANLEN
In words: AuroraA-TPX2 Homogeneous Time Resolved Fluorescent (HTRF) kinase assay. The class given is biochemical. Conditions: average, read-out: AurA/TP X2_ IC50_IP (Avg). A digest of the protocol:
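Aurora-A/TPX2 phosphorylates biotinylated PLK peptide (about 1 µM) with ATP for about 120 min in 60 mM HEPES pH 7.5, 10 mM MgCl2, 2 mM DTT. EDTA quench, overnight equilibration with Eu-anti-phosphoPLK antibody and SA-APC; HTRF read at 615/655 nm after 320 nm excitation.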

Where [1] appears, read: given as numbers, unit inferred.

Like-named read-outs stand apart in the source and are kept apart here.

T1 sequence (Q96GD4 whole entry): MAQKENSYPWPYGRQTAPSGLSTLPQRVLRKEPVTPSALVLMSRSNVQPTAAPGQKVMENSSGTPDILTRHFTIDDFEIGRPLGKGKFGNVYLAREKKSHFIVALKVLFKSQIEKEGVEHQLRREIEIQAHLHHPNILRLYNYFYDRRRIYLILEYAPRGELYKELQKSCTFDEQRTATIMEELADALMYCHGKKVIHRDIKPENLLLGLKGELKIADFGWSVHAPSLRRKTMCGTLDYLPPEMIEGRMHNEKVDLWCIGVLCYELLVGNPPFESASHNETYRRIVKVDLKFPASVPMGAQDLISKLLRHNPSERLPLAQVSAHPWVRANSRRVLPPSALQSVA

With `COc1cccc(-c2nnc(Nc3ccc(Oc4ncccc4-c4ccnc(NCCCN5CCCC5)n4)cc3)c3ccccc23)n1` [compound 455, 4-(6-(methyloxy)-2-pyridinyl)-N-(4-((3-(2-((3-(1-pyrrolidinyl)propyl)amino)-4-pyrimidinyl)-2-pyridinyl)oxy)phenyl)-1-phthalazinamine], the IC50 on AuroraB (given as class symbols) and at AuroraA-TPX2 (given as class symbols) was not above 0.1 µM in each case.

With `Nc1nccc(-c2cccnc2Oc2ccc(Nc3nnc(-c4cccc(COP(=O)(O)O)c4)c4ccccc34)cc2)n1` [compound 351, (3-(4-((4-((3-(2-amino-4-pyrimidinyl)-2-pyrldinyl)oxy)phenyl)amino)-1-phthalazinyl)pbenyl)methyl dihydrogen phosphate], the IC50 at AuroraB (given as class symbols) was not above 0.1 µM; at AuroraA-TPX2 (given as class symbols) it was 0.1 to 0.5 µM.

As to `Fc1cnc(NCCCN2CCNCC2)nc1-c1cccnc1Oc1ccc(Nc2nnc(-c3ccccc3)c3ccccc23)cc1` [compound 400, N-(4-((3-(5-fluoro-2-((3-(1-piperazinyl)propyl)amino)-4-pyrimidinyl)-2-pyridinyl)oxy)phenyl)-4-phenyl-1-phthalazinamine], the figures for the IC50 at AuroraB (given as class symbols) and at AuroraA-TPX2 (given as class symbols) were not above 0.1 µM and 0.1 to 0.5 µM, respectively.

For the molecule `CCOc1ccccc1-c1nnc(Nc2ccc(Oc3ncccc3-c3ccnc(N)n3)cc2)c2ccccc12` [compound 322, N-(4-((3-(2-amino-4-pyrimidinyl)-2-pyridinyl)oxy)phenyl)-4-(2-(ethyloxy)phenyl)-1-phthalazinamine], the IC50 on AuroraB (given as class symbols) and at AuroraA-TPX2 (given as class symbols) was not above 0.1 µM in each case.

Turning to `CS(=O)(=O)c1cccc(-c2nnc(Nc3ccc(Oc4ncccc4-c4ccnc(N)n4)nc3)c3ccccc23)c1` [compound 318, N-(6-((3-(2-amino-4-pyrimidinyl)-2-pyridinyl)oxy)-3-pyridinyl)-4-(3-(methylsulfonyl)phenyl)-1-phthalazinamine], the IC50 worked out at 0.0056 µM on AuroraB (setting [1]) and 0.0238 µM at AuroraA-TPX2 (setting [1]).

`Nc1n[nH]cc1-c1cccnc1Oc1ccc(Nc2nnc(-c3ccccc3)c3ccccc23)cc1F` [compound 314, N-(4-((3-(3-amino-1H-pyrazol-4-yl)-2-pyridinyl)oxy)-3-fluorophenyl)-4-phenyl-1-phthalazinamine]: the IC50 at AuroraB (setting [1]) turned out to be 0.0024 µM; at AuroraA-TPX2 (setting [1]), 0.0045 µM.

Turning to `Nc1nccc(-c2cccnc2Oc2ccc(Nc3nnc(-c4ccccc4OP(=O)(O)O)c4ccccc34)cn2)n1` [compound 391, 2-(4-((6-((3-(2-amino-4-pyrimidinyl)-2-pyridinyl)oxy)-3-pyridinyl)amino)-1-phthalazinyl)phenyl dihydrogen phosphate], the IC50 at AuroraB (setting [1]) was 0.641 µM; at AuroraA-TPX2 (setting [1]) it was 1.6 µM.

Consider `C[C@H]1CN(CCCNc2nccc(-c3cccnc3Oc3ccc(Nc4nnc(-c5ccccc5)c5ccccc45)cc3)n2)CCN1` [compound 411, N-(4-((3-(2-((3-((3S)-3-methyl-1-piperazinyl)propyl)amino)-4-pyrimidinyl)-2-pyridinyl)oxy)phenyl)-4-phenyl-1-phthalazinamine], for which the IC50 at AuroraB (given as class symbols) and on AuroraA-TPX2 (given as class symbols) was not above 0.1 µM in each case.

Consider `Nc1nccc(-c2cccnc2Oc2ccc(Nc3nnc(-c4cccc(OC(F)(F)F)c4)c4ccccc34)cc2)n1` [compound 377, N-(4-((3-(2-amino-4-pyrimidinyl)-2-pyridinyl)oxy)phenyl)-4-(3-((trifluoromethyl)oxy)phenyl)-1-phthalazinamine], for which the IC50 on AuroraB (given as class symbols) and on AuroraA-TPX2 (given as class symbols) was not above 0.1 µM in each case.

With `COc1cccc(-c2nnc(Nc3ccc(Oc4ncccc4-c4ccnc(NCCCN5CCNCC5)n4)cc3)c3ccccc23)n1` [compound 460, 4-(6-(methyloxy)-2-pyridinyl)-N-(4-((3-(2-((3-(1-piperazinyl)propyl)amino)-4-pyrimidinyl)-2-pyridinyl)oxy)phenyl)-1-phthalazinamine], the IC50 at AuroraB (given as class symbols) and at AuroraA-TPX2 (given as class symbols) was not above 0.1 µM in each case.

For `Nc1nccc(-c2cccnc2Oc2ccc(Nc3nnc(-c4ccc(Cl)cc4)c4ccccc34)cn2)n1` [compound 315, N-(6-((3-(2-amino-4-pyrimidinyl)-2-pyridinyl)oxy)-3-pyridinyl)-4-(4-chlorophenyl)-1-phthalazinamine], the IC50 on AuroraB (given as class symbols) and on AuroraA-TPX2 (given as class symbols) was not above 0.1 µM each time.

In the case of `c1ccc(-c2nnc(Nc3ccc(Oc4ccccc4-c4ccncc4)cc3)c3ccccc23)cc1` [compound 252, 4-phenyl-N-(4-((2-(4-pyridinyl)phenyl)oxy)phenyl)-1-phthalazinamine], the values for the IC50 at AuroraB (setting [1]) and on AuroraA-TPX2 (setting [1]) were 0.66 µM and 0.166 µM, respectively.

As to `Nc1nccc(-c2cccnc2Oc2ccc(Nc3nnc(N4CCNCC4)c4ccccc34)cc2)n1` [compound 393, N-(4-((3-(2-amino-4-pyrimidinyl)-2-pyridinyl)oxy)phenyl)-4-(1-piperazinyl)-1-phthalazinamine], the IC50 at AuroraB (given as class symbols) lay within 0.1 to 0.5 µM; on AuroraA-TPX2 (given as class symbols), 0.5 to 2.5 µM.

Regarding `Nc1nccc(-c2cccnc2Oc2ccc(Nc3nnc(N4CCN5CCC[C@H]5C4)c4ccccc34)cc2)n1` [compound 401, N-(4-((3-(2-amino-4-pyrimidinyl)-2-pyridinyl)oxy)phenyl)-4-((8aS)-hexahydropyrrolo[1,2-a]pyrazin-2(1H)-yl)-1-phthalazinamine], the IC50 on AuroraB (given as class symbols) and on AuroraA-TPX2 (given as class symbols) was not above 0.1 µM in each case.

For `CCc1cc(-c2ccccc2)nnc1Nc1ccc(Oc2ncccc2-c2ccnc(NCCCN3CCN(C)CC3)n2)cc1` [compound 456, 4-ethyl-N-(4-((3-(2-((3-(4-methyl-1-piperazinyl)propyl)amino)-4-pyrimidinyl)-2-pyridinyl)oxy)phenyl)-6-phenyl-3-pyridazinamine], the IC50 on AuroraB (given as class symbols) and at AuroraA-TPX2 (given as class symbols) was not above 0.1 µM each time.

Turning to `CN1CCN(CCCNc2nccc(-c3cccnc3Oc3ccc(Nc4nnc(-c5ccccc5)c5ccccc45)cn3)n2)CC1` [compound 389, N-(6-((3-(2-((3-(4-methyl-1-piperazinyl)propyl)amino)-4-pyrimidinyl)-2-pyridinyl)oxy)-3-pyridinyl)-4-phenyl-1-phthalazinamine], the IC50 on AuroraB (given as class symbols) and at AuroraA-TPX2 (given as class symbols) was not above 0.1 µM in each case.

With `CCc1cc(-c2ccccc2)nnc1Nc1ccc(Oc2ncccc2-c2ccnc(NCCCN3CCCCC3)n2)cc1` [compound 458, 4-ethyl-6-phenyl-N-(4-((3-(2-((3-(1-piperidinyl)propyl)amino)-4-pyrimidinyl)-2-pyridinyl)oxy)phenyl)-3-pyridazinamine], the IC50 on AuroraB (given as class symbols) and on AuroraA-TPX2 (given as class symbols) was not above 0.1 µM throughout.

Consider `COc1ccc(-c2nnc(Nc3ccc(Oc4ncccc4-c4ccnc(N)n4)nc3)c3ccccc23)cc1` [compound 319, N-(6-((3-(2-amino-4-pyrimidinyl)-2-pyridinyl)oxy)-3-pyridinyl)-4-(4-(methyloxy)phenyl)-1-phthalazinamine], for which the IC50 on AuroraB (given as class symbols) and at AuroraA-TPX2 (given as class symbols) was not above 0.1 µM throughout.

For the molecule `Nc1nccc(-c2cccnc2Oc2ccc(Nc3nnc(-c4ccccc4O)c4ccccc34)cn2)n1` [compound 365, 2-(4-((6-((3-(2-amino-4-pyrimidinyl)-2-pyridinyl)oxy)-3-pyridinyl)amino)-1-phthalazinyl)phenol], the IC50 at AuroraB (setting [1]) was determined as 0.0113 µM; on AuroraA-TPX2 (setting [1]), 0.0276 µM.

As for `FC1CCCN(CCCNc2nccc(-c3cccnc3Oc3ccc(Nc4nnc(-c5ccccc5)c5ccccc45)cc3)n2)C1` (stereo not shown) [compound 452, N-(4-((3-(2-((3-(3-fluoro-1-ptperidinyl)propyl)amino)-4-pyrimidinyl)-2-pyridinyl)oxy)phenyl)-4-phenyl-1-phthalazinamine], the IC50 on AuroraB (given as class symbols) and at AuroraA-TPX2 (given as class symbols) was not above 0.1 µM each time.
